Laboratory results reported in patent US20230023070A1, “Therapy for the Treatment of Cancer” (Celegene Corporation, priority 2019, published 2023).
Entries after “also recorded” stand apart in the source; their conditions may differ.

Experiments:
MM1.S cells = assay: Anti-proliferative activity by 3H-thymidine incorporation, combination with bortezomib; type: cell-based; conditions: 3 days, bortezomib 62.5 and 125.0 pM, pomalidomide 0.001-1.0 μM or Compound A-S 0.1-10.0 nM
Protocol: The anti-proliferative activity of pomalidomide (treatment of cells with 0.001-1.0 μM) combined with bortezomib (62.5 and 125.0 pM) or Compound A-S (treatment of cells with 0.1-10.0 nM) combined with bortezomib (62.5 and 125.0 pM) was measured by 3H-thymidine incorporation in MM1.S cells after 3 days of treatment in each condition. Combination indices (CI) were calculated using the Chou-Talalay Method for each combination. CI values below 1 indicated synergistic activity of combination.

KMS-12BM cells = assay: Apoptosis by flow cytometry, Annexin-V and ToPro3 staining, after proteasome inhibitor pulse; type: cell-based; conditions: then 3 days treatment, AnnV+/ToPro3+; for apoptosis / cell killing in combination with bortezomib: 1 hour pulse with bortezomib; for apoptosis / cell killing in combination with carfilzomib: 1 hour pulse with carfilzomib
Protocol: Apoptosis was measured in KMS-12BM cells by flow cytometry using Annexin-V (AnnV+; x-axis) and ToPro3+ (y-axis) staining after either vehicle (DMSO), pomalidomide (POM) or Compound A-S treatment over 3 days following 1 hour pulse treatment with DMSO, Bortezomib (BORT) or Carfilzomib (CFZ) at indicated concentrations.

Row | SMILES | anti-proliferative activity in combination with bortezomib (combination index, Chou-Talalay; CI below 1 = synergistic) (MM1.S cells) | apoptosis / cell killing in combination with bortezomib (KMS-12BM cells) | apoptosis / cell killing in combination with carfilzomib (KMS-12BM cells)
1 | O=C1CC[C@H](N2Cc3c(OCc4ccc(CN5CCOCC5)cc4)cccc3C2=O)C(=O)N1 [Compound A-S, (S)-3-(4-((4-(morpholinomethyl)benzyl)oxy)-1-oxoisoindolin-2-yl)piperidine-2,6-dione] | synergistic | induced cell killing; also recorded: apoptosis induced | induced cell killing; also recorded: apoptosis induced
2 | Nc1cccc2c1C(=O)N(C1CCC(=O)NC1=O)C2=O (stereo not drawn) [pomalidomide, reference compound] | synergistic | induced cell killing | induced cell killing
